Experimental findings from patent US8592581B2, “Trisubstituted purine derivatives” (Cyclacel Limited, priority 2007, dated 2013) are described below.

Like-named read-outs stand apart in the source and are kept apart here.

One test concerns the target CDK2/cyclin E (Homo sapiens (Human), UniProt P24941). Put plainly: In-vitro recombinant kinase assay CDK2/cyclin E. It counts as biochemical. Here is the method:
(§1) To evaluate the in-vitro kinase potency of the compounds, they were screened against CDK 2 and CDK9. Kinase assays were performed in 96-well plates using recombinant CDK/cyclins generated at Cyclacel. Ltd Dundee, UK. CDK2 and CDK9 assays were performed in a total volume of 25 μl in assay buffer (25 mM b-glycerophosphate, 20 mM MOPS, 5 mM EGTA, 1 mM DTT and 1 mM NaVO3, pH 7.4), into which were added 2-4 μg of active enzyme with appropriate substrates (purified histone H1 for CDK2/cyclin E, and CDK2/cyclin A, biotinyl-Ahx-(YSPTSPS)4 for CDK9/cyclin T1). […] CDK2 reactions were stopped by addition of 25 μl of 75 mM phosphoric acid, followed by filtration through P81 filterplates (Whatman Polyfiltronics, Kent, UK). For CDK9, the reaction was stopped by addition of 25 μl of 75 mM phosphoric acid, then 5 μl of 10 mg/ml avidin was added to each well and further incubated for 2 min followed by filtration as per CDK2 assay. After washing 3 times with 75 mM orthophosphoric acid, plates were dried, scintillant added and incorporated radioactivity measured in a scintillation counter (TopCount, Packard Instruments, Pangbourne, Berks, UK). Compounds for kinase assay were made up as 10 mM stocks in DMSO and diluted into 10% DMSO in assay buffer.
as §1

In another test the target is CDK2/cyclin A (Homo sapiens (Human), UniProt P24941). Put plainly: In-vitro recombinant kinase assay CDK2/cyclin A. Format: biochemical. Here is the method:
as §1, §1

The next test concerns the target CDK9/cyclin T1 (Homo sapiens (Human), UniProt P50750). Put plainly: In-vitro recombinant kinase assay CDK9/cyclin T1. It counts as biochemical. The settings on record: Table 2; average of duplicate points. How it is done:
as §1, §1

The test system of test [1] is H460 non-small cell lung cancer (NSCLC) cell line. Put plainly: Alamar blue cytotoxicity assay in H460 NSCLC tumour cell line. It counts as cell-based. The conditions noted are these: for Fold increase in potency: H460 cellular IC50 compared with seliciclib; for IC50: H460 cells, 72 hours, average of three independent experiments. How it is done: In order to determine the cellular potency of the compounds, the cytotoxicity of each compound was determined against the H460 non-small cell lung cancer (NSCLC) cell line. Standard cytotoxicity methods were performed as follows: H460 cells were seeded in 96-well plates appropriately for their doubling time (3000 cells per well) in RPMI media containing 10% FCS and incubated overnight at 37° C., 5% CO2. The media was removed and 100 μl fresh media containing increasing concentrations of appropriate compound was added and the cells incubated for 72 hours at 37° C., 5% CO2. A 10% stock of alamar blue (Roche, Lewes, United Kingdom) was prepared in medium and 100 μl added to the cells which were incubated for 2 hours.
(In general: The colour change of resazurin is a common sign of viable cells or microbes.)

The next test addresses CDK1B (Homo sapiens (Human), UniProt P06493). Put plainly: In-vitro kinase assay screen CDK1B (Table 4). It counts as biochemical.
Setting [2] is: Table 2, average of duplicate points, read-out: CDK2/Cyclin E Average IC50.
Where [3] appears, read: Table 2, average of duplicate points, read-out: CDK2/Cyclin A Average IC50.
The mark [4] stands for this setting: Table 4, Run 1, read-out: CDK2E Run 1.
Where [5] appears, read: Table 4, Run 2, read-out: CDK2E Run 2.
[6] abbreviates: Table 4, mean of two runs, read-out: CDK2E Mean.
Where [7] appears, read: Table 4, Run 1, read-out: CDK2A Run 1.
The mark [8] stands for this setting: Table 4, Run 2, read-out: CDK2A Run 2.
Where [9] appears, read: Table 4, Run 1, read-out: CDK1B Run 1.
[10] abbreviates: Table 4, Run 2, read-out: CDK1B Run 2.
Setting [11] is: Table 4, mean of two runs, read-out: CDK1B Mean.

CDK9/cyclin T1, sequence (P50750 whole entry, species assumed): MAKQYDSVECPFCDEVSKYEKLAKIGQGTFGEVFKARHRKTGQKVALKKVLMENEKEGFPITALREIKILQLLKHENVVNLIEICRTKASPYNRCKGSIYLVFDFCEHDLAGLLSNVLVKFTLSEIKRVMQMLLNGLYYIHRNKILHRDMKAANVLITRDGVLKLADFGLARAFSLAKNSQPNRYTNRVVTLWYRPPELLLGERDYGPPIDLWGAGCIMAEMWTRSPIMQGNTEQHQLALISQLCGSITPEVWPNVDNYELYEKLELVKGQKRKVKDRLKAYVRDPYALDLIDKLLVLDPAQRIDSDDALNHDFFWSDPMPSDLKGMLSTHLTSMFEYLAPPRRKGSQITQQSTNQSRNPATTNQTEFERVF
CDK9/cyclin T1, sequence (O60563 whole entry partner, species assumed): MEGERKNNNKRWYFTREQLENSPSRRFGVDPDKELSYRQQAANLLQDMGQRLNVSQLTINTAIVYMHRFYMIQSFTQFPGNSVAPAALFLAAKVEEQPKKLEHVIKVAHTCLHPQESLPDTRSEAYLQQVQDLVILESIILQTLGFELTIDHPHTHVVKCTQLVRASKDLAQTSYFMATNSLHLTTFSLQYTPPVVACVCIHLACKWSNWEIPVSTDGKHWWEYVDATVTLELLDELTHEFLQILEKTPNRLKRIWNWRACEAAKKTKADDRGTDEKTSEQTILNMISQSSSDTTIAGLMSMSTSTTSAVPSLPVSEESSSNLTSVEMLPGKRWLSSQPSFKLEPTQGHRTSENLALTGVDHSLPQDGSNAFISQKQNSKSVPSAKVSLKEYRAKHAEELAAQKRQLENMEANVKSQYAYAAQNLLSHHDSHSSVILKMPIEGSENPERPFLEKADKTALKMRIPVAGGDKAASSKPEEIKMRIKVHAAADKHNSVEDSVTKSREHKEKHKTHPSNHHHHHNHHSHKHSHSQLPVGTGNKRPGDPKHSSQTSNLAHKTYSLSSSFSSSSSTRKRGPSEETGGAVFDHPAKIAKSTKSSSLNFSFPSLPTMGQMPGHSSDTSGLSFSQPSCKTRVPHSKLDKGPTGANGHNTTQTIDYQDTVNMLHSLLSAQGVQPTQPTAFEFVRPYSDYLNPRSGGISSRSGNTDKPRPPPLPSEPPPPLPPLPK
CDK1B, sequence (P06493 whole entry): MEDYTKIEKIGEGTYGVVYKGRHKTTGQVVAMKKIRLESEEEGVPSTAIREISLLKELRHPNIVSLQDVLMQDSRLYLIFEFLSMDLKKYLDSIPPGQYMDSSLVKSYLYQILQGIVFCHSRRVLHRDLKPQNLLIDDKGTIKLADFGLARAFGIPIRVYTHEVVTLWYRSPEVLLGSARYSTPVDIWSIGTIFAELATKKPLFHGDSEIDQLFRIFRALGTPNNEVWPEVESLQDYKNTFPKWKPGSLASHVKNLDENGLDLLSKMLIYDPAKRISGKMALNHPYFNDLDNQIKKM
CDK1B, sequence (P14635 whole entry partner): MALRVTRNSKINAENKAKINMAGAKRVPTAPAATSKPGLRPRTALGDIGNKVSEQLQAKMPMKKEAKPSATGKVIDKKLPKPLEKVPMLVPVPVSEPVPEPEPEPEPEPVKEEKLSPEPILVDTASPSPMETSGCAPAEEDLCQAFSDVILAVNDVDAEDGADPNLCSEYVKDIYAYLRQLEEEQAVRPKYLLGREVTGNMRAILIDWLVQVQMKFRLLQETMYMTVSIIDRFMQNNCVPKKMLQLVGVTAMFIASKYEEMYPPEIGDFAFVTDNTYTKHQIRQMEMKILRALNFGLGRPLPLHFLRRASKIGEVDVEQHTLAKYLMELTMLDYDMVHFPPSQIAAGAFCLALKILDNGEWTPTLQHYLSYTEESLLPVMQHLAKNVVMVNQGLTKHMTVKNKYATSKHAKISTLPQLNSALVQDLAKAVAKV

Regarding `CC[C@H](Nc1nc(NCc2ccc(C)nc2)c2ncn(C(C)C)c2n1)[C@@H](C)O` [[2], 2R,3S-3-(9-isopropyl-6-((6-methylpyridin-3-yl)methylamino)-9H-purin-2-ylamino)pentan-2-ol], the IC50 on CDK2/cyclin E (setting [2]) turned out to be 520 nM; at CDK2/cyclin A, 3250 nM; on CDK9/cyclin T1, 3630 nM; in test [1] (Homo sapiens, NCI-H460, 72 h) it was 35000 nM. Also, the “Fold increase in potency” value in test [1] came to 0.3.
Regarding `CC[C@H](Nc1nc(NCc2cccc(Cl)c2)c2ncn(C(C)C)c2n1)[C@@H](C)O` [[3], 2R,3S-3-(6-(3-Chlorobenzylamino)-9-isopropyl-9H-purin-2-ylamino)pentan-2-ol], the IC50 at CDK2/cyclin E (setting [2]) turned out to be 10 nM; on CDK2/cyclin A (setting [3]) it was 100 nM; at CDK9/cyclin T1 it was 60 nM; in test [1] (Homo sapiens, NCI-H460, 72 h) it was 1500 nM. The “Fold increase in potency” value in test [1] turned out to be 8.0.
Turning to `CC[C@H](Nc1nc(NCc2cccc(F)c2)c2ncn(C(C)C)c2n1)[C@@H](C)O` [[4], 2R,3S-3-[6-(3-Fluorobenzylamino)-9-isopropyl-9H-purin-2-ylamino]-pentan-2-ol], the IC50 on CDK2/cyclin E (setting [2]) is 20 nM; at CDK2/cyclin A (setting [3]) it was 120 nM; at CDK9/cyclin T1, 80 nM; in test [1] (Homo sapiens, NCI-H460, 72 h), 1500 nM. Further, the “Fold increase in potency” value in test [1] amounted to 8.0.
Take `CC[C@H](Nc1nc(NCc2cccnc2)c2ncn(CC3CC3)c2n1)[C@@H](C)O` [[5], 2R,3S-3-(9-(Cyclopropylmethyl)-6-(pyridin-3-ylmethylamino)-9H-purin-2-ylamino)pentan-2-ol]: the IC50 at CDK2/cyclin E (setting [2]) was 830 nM; at CDK9/cyclin T1, 7890 nM; in test [1] (Homo sapiens, NCI-H460, 72 h), 34400 nM. In addition, the “Fold increase in potency” value in test [1] turned out to be 0.3.
For `CC[C@H](Nc1nc(NC2CC2)c2ncn(C(C)C)c2n1)[C@@H](C)O` [[6]] the same measures were 50 nM, 270 nM, 1700 nM and 7.1.
Consider `CC[C@H](Nc1nc(NCC2CC2)c2ncn(C(C)C)c2n1)[C@@H](C)O` [[7], 2R,3S-3-(6-(Cyclopropylmethylamino)-9-isopropyl-9H-purine-2-ylamino)pentan-2-ol], for which the IC50 on CDK2/cyclin E (setting [2]) worked out at 40 nM; at CDK9/cyclin T1 it was 380 nM; in test [1] (Homo sapiens, NCI-H460, 72 h) it was 2400 nM. Besides, the “Fold increase in potency” value in test [1] is given as 5.0.
For `CC[C@H](Nc1nc(NC2CCC2)c2ncn(C(C)C)c2n1)[C@@H](C)O` [[8], 2R,3S-3-(6-(Cyclobutylamino)-9-isopropyl-9H-purin-2-ylamino)pentan-2-ol] the same measures were 160 nM, 500 nM, 2900 nM and 4.1.
For `CC[C@H](Nc1nc(NCc2ccncc2)c2ncn(C(C)C)c2n1)[C@@H](C)O` [[9], 2R,3S-3-(9-Isopropyl-6-(pyridine-4-ylmethylamino)-9H-purin-2-ylamino)pentan-2-ol] the same measures were 40 nM, 610 nM, 2300 nM and 5.2.
The like results for `CC[C@H](Nc1nc(NCc2cc(C)nc(C)c2)c2ncn(C(C)C)c2n1)[C@@H](C)O` [[10], 2R,3S-3-(9-Isopropyl-6-(2,6-dimethylpyridine-4-ylmethylamino)-9H-purin-2-ylamino)pentan-2-ol] were, in that order, 50 nM, 1040 nM, 2400 nM and 5.0.
Take `CC[C@H](Nc1nc(NCc2ccc(C(F)(F)F)nc2)c2ncn(C(C)C)c2n1)[C@@H](C)O` [[11], 2R,3S-3-(9-Isopropyl-6-((6-(trifluoromethyl)pyridine-3-yl)methylamino)-9H-purin-2-ylamino)pentan-2-ol]: the IC50 at CDK2/cyclin E (setting [2]) is 40 nM; at CDK9/cyclin T1, 250 nM; in test [1] it was 900 nM; in test [1] (Homo sapiens, NCI-H460, 72 h), less than 1000 nM. In addition, the “Fold increase in potency” value in test [1] turned out to be 13.3.
Regarding `CC[C@H](Nc1nc(NCc2cccc(C)n2)c2ncn(C(C)C)c2n1)[C@@H](C)O` [[12], 2R,3S-3-(9-Isopropyl-6-((6-methylpyridin-2-yl)methylamino)-9H-purin-2-ylamino)pentan-2-ol], the IC50 on CDK2/cyclin E (setting [2]) amounted to 50 nM; at CDK9/cyclin T1 it was 2040 nM; in test [1] (Homo sapiens, NCI-H460, 72 h) it was 7200 nM. In addition, the “Fold increase in potency” value in test [1] stood at 1.7.
The like results for `CC[C@H](Nc1nc(NCc2ncccc2C)c2ncn(C(C)C)c2n1)[C@@H](C)O` [[13], 2R,3S-3-(9-Isopropyl-6-((3-methylpyridin-2-yl)methylamino)-9H-purin-2-ylamino)pentan-2-ol] were, in that order, 770 nM, 5840 nM, 19400 nM and 0.6.
For `CC(C)n1cnc2c(NCc3cccnc3)nc(NC[C@@H](C)O)nc21` [[14], (R)-1-(9-Isopropyl-6-(pyridin-3-ylmethylamino)-9H-purin-2-ylamino)propan-2-ol] the same measures were 290 nM, 6530 nM, 16700 nM and 0.7.
`CC(C)n1cnc2c(NCc3cccnc3)nc(NCC(O)C(F)(F)F)nc21` (stereo not drawn) [[15], 1,1,1-Trifluoro-3-(9-isopropyl-6-(pyridin-3-ylmethylamino)-9H-purin-2-ylamino)propan-2-ol]: the IC50 amounted to 570 nM at CDK2/cyclin E (setting [2]); 7400 nM at CDK9/cyclin T1; 20300 nM in test [1] (Homo sapiens, NCI-H460, 72 h). In test [1], the “Fold increase in potency” value was 0.6.
For `CCC(Nc1nc(NCc2cccnc2)c2ncn(C(C)C)c2n1)C(O)C(F)(F)F` (stereo not drawn) [[16], 1,1,1-Trifluoro-3-(9-isopropyl-6-(pyridin-3-ylmethylamino)-9H-purin-2-ylamino)pentan-2-ol] the same measures were 90 nM, 2140 nM, 4100 nM and 2.9.
As to `CCC(Nc1nc(NCc2ccc(C(F)(F)F)nc2)c2ncn(C(C)C)c2n1)C(O)C(F)(F)F` (stereo not drawn) [[17], 1,1,1-Trifluoro-3-(9-isopropyl-6-((6-(trifluoromethyl)pyridin-3-yl)methylamino)-9H-2-ylamino)pentan-2-ol], the IC50 on CDK2/cyclin E (setting [4]) was 318 nM; on CDK2/cyclin E (setting [5]), 307 nM; at CDK2/cyclin E (setting [6]), 313 nM; on CDK2/cyclin A (setting [7]), 305 nM; on CDK2/cyclin A (setting [8]) it was 431 nM; on CDK2/cyclin A (Table 4, mean of two runs, read-out: CDK2A Mean), 368 nM. The results for the IC50 at CDK1B (setting [9]), on CDK1B (setting [10]) and at CDK1B (setting [11]) were 6.12 µM, 11.2 µM and 8.68 µM, respectively.
Take `CC(C)n1cnc2c(NCc3cccnc3)nc(NCC(O)(C(F)(F)F)C(F)(F)F)nc21` [[18], 1,1,1,3,3,3-Hexafluoro-2-((9-isopropyl-6-(pyridine-3-ylmethylamino)-9H-purin-2-ylamino)methyl)propan-2-ol]: the IC50 amounted to 336 nM on CDK2/cyclin E (setting [4]); 279 nM on CDK2/cyclin E (setting [5]); 308 nM at CDK2/cyclin E (setting [6]); 704 nM on CDK2/cyclin A (setting [7]); 1190 nM at CDK2/cyclin A (setting [8]); 5.88 µM on CDK1B (setting [9]). Further, the IC50 on CDK1B (setting [10]) came to 6.72 µM; at CDK1B (setting [11]), 6.3 µM.
